Reference: publication PMC12520770, “Synthesis of a novel coumarin via the Mannich reaction: in vitro and in silico evaluation of anti-cancer, antimicrobial and antioxidant activities” (Royal Society Open Science, 2025)
Values after ≈ are worked out from the molar mass of the structure shown.

Legend:
[1] = test system: human breast cancer cell line MCF-7; test: SRB cytotoxicity assay, MCF-7; format: cell-based; conditions: MCF7, MCF-7, SRB assay, 48 h
Procedure: (§1) Human lung cancer cell line NCI-H460 (HTB-177), human breast cancer cell line MCF-7 (HTB-2), human cervical cancer cells HeLa (CCL-2), human liver cancer cell line HepG2 (HB-8065) and normal kidney epithelial cell line (LLCPK1) were purchased from the American Type Culture Collection (Manassas, Rockville). Cells were cultured at 37°C and 5% CO2 in Eagle’s minimal essential medium supplemented with 10% (v/v) FBS (Sigma), 2 mM L-glutamine (Sigma), 20 mM HEPES (Sigma), 0.025 μg ml^−1 amphotericin B (Sigma), 100 IU ml^−1 penicillin G (Sigma) and 100 μg ml^−1 streptomycin (Sigma). Cells used in this study were between passages 4 and 20.
(§2) The experiment was conducted as previously outlined, with certain variations. Cells were seeded at a density of 10 000 cells per well (MCF-7, Hep G2, HeLa) or 7500 cells per well (NCI-H460) in 96-well plates, grown for 24 h, and subsequently treated with compounds at varying doses for 48 h. Treated cells were fixed with cold 50% (w/v) trichloroacetic acid (Merck) solution for 1−3 h, subsequently washed and stained with 0.2% (w/v) SRB (Sigma) for 20 min. Following five washes with 1% acetic acid (Merck), the protein-bound dye was solubilized in a 10 mM Tris base solution (Promega). Optical density values were measured using a 96-well microtiter plate reader (Synergy HT, Biotek Instruments) at wavelengths of 492 and 620 nm. The growth inhibition percentage (Inh %) was determined using the formula: Inh % = (1 − [ODt/ODc]) × 100, where ODt and ODc represent the optical density values of the test and control samples, respectively. Camptothecin served as the positive control.

[2] = test system: human cervical cancer cells HeLa; test: SRB cytotoxicity assay, HeLa; format: cell-based; conditions: 48 h
Procedure: as §1, §2

[3] = DPPH radical scavenging assay; format: biochemical; conditions: read-out: SC50 (the source's name)
Procedure: The 1,1-diphenyl−2-picrylhydrazyl (DPPH) assay is a technique employed to assess the antioxidant potential of a chemical by measuring its efficacy in scavenging free radicals. DPPH produces stable free radicals in methanol. Upon exposure to an antioxidant, DPPH experiences a colour transformation from purple to yellow, which is quantified using an ELISA reader at a wavelength of 517 nm. The experiment is performed in a 96-well plate, where a 150 µM DPPH solution in 80% methanol is combined with test samples at different concentrations. The DPPH radical scavenging activity percentage is computed using the formula SC% = 1 − [ODt/ODc] × 100 (%), where SC50 (radical scavenging concentration of 50%) is the sample concentration necessary to eliminate 50% of DPPH radicals, as ascertained from the standard calibration curve. Trolox serves as a positive control in the experiment.

[4] = test system: human liver cancer cell line HepG2; test: SRB cytotoxicity assay, HepG2; format: cell-based; conditions: 48 h
Procedure: as §1, §2

[5] = test system: normal kidney epithelial cell line (LLCPK1); test: SRB cytotoxicity assay, normal cells LLCPK1; format: cell-based; conditions: Sus scrofa, LLC-PK1
Procedure: as §1, §2

[6] = test system: Bacillus subtilis; test: Broth microdilution MIC, B. subtilis; format: cell-based
Procedure: The three bacteria—Escherichia coli (E. coli), methicillin-resistant Staphylococcus aureus (MRSA) and Bacillus subtilis (B. subtilis), and two fungi: Candida albicans (C. albicans) and Trichophyton mentagrophytes (T. mentagrophytes) were used in this study. The clinical isolates were obtained in 2019 from the Faculty of Biology and Biotechnology, University of Science, Vietnam National University.
All coumarin derivatives were evaluated for in vitro antibacterial and antifungal activities, and the minimum inhibitory concentration (MIC) was ascertained in µM using the broth microdilution method. The test organisms were cultivated and cultured for 48 h at 37°C. The 2-day-old bacterial cultures were emulsified in a small volume of Muller Hinton broth (MHB) and cultured at 37°C overnight to reach the logarithmic growth phase. The turbidity of each inoculum was subsequently corrected to McFarland standard no. 0.5 by the additional incorporation of MHB, resulting in an inoculum concentration of 1.5 × 10^8 CFU ml^−1. One hundred microlitres of MHB were dispensed into all wells of the 96-well microtiter plates, excluding the first column A. Subsequently, 200 µl of the working solution for each examined chemical was allocated to column A of each plate. […] The MIC was determined as the minimal concentration of substances that inhibited the colour change.

SMILES | IC50 [1] [µM] | IC50 [2] [µM] | EC50 [3] [µM] | IC50 [4] [µM] | IC50 [5] [µM] | MIC [6] [µM]
O=c1oc2ccccc2c(O)c1CNc1ccc(S(=O)(=O)O)cc1 [compound 2i, 4-{[(4-Hydroxy-2-oxo−2H-chromen-3-yl)methyl]amino}benzenesulfonic acid] | 85.2 | 80.2 | 7.36 ± 0.18 | 75.2 |  | 
O=c1oc2ccccc2c(O)c1CN1CCOCC1 [2g, 4-Hydroxy-3-(morpholinomethyl)-2H-chromen-2-one] | 42.7 | 31.5 | 72.2 | 50.2 |  | 
N#Cc1ccc(NCc2c(O)c3ccccc3oc2=O)cc1 [compound 2d, 4-{[(4-Hydroxy-2-oxo-2H−chromen-3-yl)methyl]amino}benzonitrile] | 2.54 ± 0.12 | 34.1 | 35.8 | 70.2 | 94.8 | 
CC[C@@]1(O)C(=O)OCc2c1cc1n(c2=O)Cc2cc3ccccc3nc2-1 [camptothecin, reference compound] | 3.76 ± 0.15 | 2.38 ± 0.102 |  | 4.28 ± 0.201 |  | 
O=c1oc2ccccc2c(O)c1CNc1ccccc1 [compound 2j, 4-Hydroxy-3-[(phenylamino)methyl]-2H-chromen-2-one] | 95.5 | 84.7 | 53.3 | 68.1 |  | 
Cc1c(C)c2c(c(C)c1O)CCC(C)(C(=O)O)O2 (stereo not shown) [Trolox, reference compound] |  |  | 6.12 ± 0.15 |  |  | 
O=c1oc2ccccc2c(O)c1CNC1CCCC1 [compound 2f, 3-[(Cyclopentylamino)methyl]-4-hydroxy-2H-chromen-2-one] | 54.2 | 57.3 | 45.9 | 49.7 |  | 75 (≈ 19.4 µg/mL)
CCCNCc1c(O)c2ccccc2oc1=O [2h, 4-Hydroxy-3-[(propylamino)methyl]-2H-chromen-2-one] | 40.1 | 73.2 | 65.3 | 62.5 |  | 
O=C(O)c1ccc(NCc2c(O)c3ccccc3oc2=O)cc1 [2c, 4-{[(4-hydroxy-2-oxo-2H-chromen-3-yl)methyl]amino}benzoic acid] | 61.4 | 54.9 | 59.7 | 56.5 |  | 
CNCc1c(O)c2ccccc2oc1=O [compound 2a, 4-Hydroxy-3-[(methylamino)methyl]-2H-chromen-2-one] | 52 | 39.3 | 62.5 | 8.57 ± 0.42 | 94.6 | 25 (≈ 5.13 µg/mL)
O=c1oc2ccccc2c(O)c1Cn1ccnc1 [2e, 3-[(1H-imidazol-1-yl)methyl]-4-hydroxy-2H-chromen-2-one] | 30.4 | 34.2 | 80.9 | 34.2 |  | 
CC(C)NCc1c(O)c2ccccc2oc1=O [compound 2b, 4-Hydroxy-3-[(isopropylamino)methyl]-2H-chromen-2-one] | 35.4 | 5.23 ± 0.12 | 31.3 | 73.2 | 97.3 | 
